Test results as given in patent EP0470144B1, “BETA-HYDROXAMATE D-ASPARTIC ACID FOR TREATMENT OF VIRAL INFECTIONS AND TUMOURS” (priority 1989, dated 1990).
Several values for one entry are separate records, joined by “and”; a condition that tells them apart may be missing. Equal entries are not always repeated.

How the values were obtained:
[1] = LD50 comparison of DAH and LAH; conditions: in vivo
[2] = Stability of DAH versus pH and temperature over one month (colorimetric assay of the hydroxamate function); assay type: physicochemical; conditions: for Pourcentage de dégradation du DAH sur une période de 30 jours: 30 days
Protocol: La fonction hydroxamate du DAH est mise en évidence par un complexe Fe3+-hydroxamate qui donne une coloration rouge-violet, quantifiée par méthode colorimétrique à 550 nm, à l'aide d'un spectrophotomètre de type Beckman DU 70.
La stabilité du DAH en fonction du pH et de la température a été déterminée sur une durée d'un mois par dosage colorimétrique spécifique de la fonction hydroxamate. Les résultats du tableau ci-après montrent que dans l'eau le DAH est stable jusqu'à une température de 50°C. Une dégradation significative du produit n'est constatée que dans des conditions extrêmes de pH, comme l'illustre le Tableau 1 ci-après. Tableau 1

FLV = assay: Friend virus (FLV) replication in SC1 cell culture, reverse transcriptase activity in supernatants; assay type: cell-based; conditions: SC1 cells infected with FLV
Excerpt: Des cultures de cellules SC1 traitées avec du polybrène ont été infectées avec du FLV (5 x 10⁵ particules infectantes pour 2 x 10⁵ cellules). Les cellules ont ensuite été mises en culture avec diverses concentrations de DAH et l'activité de réplication du FLV a été mesurée par dosage de l'activité transcriptase inverse apparaissant dans les surnageants de milieux de culture aux 2ème, 4ème et 6ème jour après l'infection.

[3] = molecular target: T1, transcriptase inverse (RT) du FLV (Friend murine leukemia virus, UniProt P26810); assay: Reverse transcriptase (RT) activity of highly purified FLV, poly A-oligo dT substrate; assay type: biochemical; conditions: at concentrations giving the anti-retroviral effect in cell culture
T1 construct: comme source de RT une préparation de FLV hautement purifié; from tissue; host or cells: highly purified FLV virus preparation (virions)
Excerpt: La transcriptase inverse étant la cible de divers agents anti-rétroviraux, il est intéressant de tester l'effet du DAH sur l'activité transcriptase inverse (RT) du FLV. Cet essai a été effectué en utilisant comme source de RT une préparation de FLV hautement purifié, et comme substrat du poly A-oligo dT. Les substrats ont été introduits dans le milieu réactionnel dans l'ordre suivant : DAH aux concentrations désirées, virus purifié, polyA-oligo dT, dTTP + ³HdTTP.

[4] = Acute parenteral toxicity in mice (lethal doses); assay type: in vivo, souris B6D2F1; conditions: evaluated at 24 hours and 14 days
Excerpt: La toxicité du DAH par voie parentérale a été évaluée chez la souris B6D2F1 âgée de six semaines et pesant entre 20 et 22 g. Pour chaque niveau de dose, on a utilisé treize mâles et treize femelles avec une période d'observation de 14 jours. La dose léthale (DL) a été évaluée 24 heures après l'injection de DAH puis à 14 jours. Dans ces conditions, on a pu montrer que la DL 10 (10 % de mortalité) était observée pour des posologies de 8,5-9 g/kg, la DL 50 correspondait à 11-12 g/kg et la DL 90 à 14-15 g/kg. Il n'a pas été observé de différence significative de mortalité à 24 heures et à 14 jours pour un niveau de dose donné.

HIV = HIV replication in lymphocyte cultures (infected with purified virus, or coculture of AIDS patients' and normal lymphocytes), reverse transcriptase activity in supernatant; assay type: cell-based; conditions: DAH treatment 72 h (J0 to J3), RT followed 22 days; dose-dependent; 0,5-2 mM
Excerpt: Cette inhibition est dose-dépendante. Les essais ont d'abord porté sur des lymphoytes de donneurs sains (Figures 1 et 2). On a pu mettre en évidence cette activité sur deux modèles de réplication du HIV : a) lymphocytes normaux infectés par le virus purifié et b) coculture des lymphocytes des malades du SIDA et de lymphocytes normaux. On a mesuré l'activité transcriptase inverse pendant 22 jours dans le surnageant de cultures cellulaires comme critère de prolifération virale. Le traitement avec le DAH a duré 72 heures de J₀ à J₃ de la manipulation (Figures 3, 4 et 5). […] Par contre, le DAH s'est montré plus toxique vis-à-vis des lymphocytes infectés par le virus du SIDA (Figures 6 et 7).
Effet du traitement par le DAH durant trois jours sur la production de transcriptase inverse virale par une coculture de lymphocytes des malades du SIDA et de lymphocytes normaux.
(●) absence de DAH (témoin) (o) concentration en DAH = 1 mM (□) concentration en DAH = 1,5 mM • . En abscisses : temps de croissance des cultures après inoculation du DAH (en jours) • . En ordonnées : activité transcriptase inverse (en CPM/million de cellules)
Effet du traitement par le DAH durant trois jours, sur la production de transcriptase inverse virale d'une culture de lymphocytes infectés par du virus purifié. […]

leucémie P388 = assay: Antitumour activity in the P388 leukaemia model, survival; assay type: in vivo, souris B6D2F1; conditions: for Nombre d'animaux survivants: at 30 days
Excerpt: L'activité antitumorale du DAH a été aussi étudiée sur deux autres modèles murins : le lymphome L5178Y et la leucémie P388.
Les cellules de la leucémie P388 sont maintenues par passage intrapéritonéaux chez la souris DBA/2 et injectées, pour les essais, à la dose de […] par souris sur la souris B6D2F1.

## N[C@@H](CC(=O)NO)C(=O)O [DAH, D-acide aspartique β-hydroxamate]
[1]
  DL 50 %: 10 g/kg
[2]; HCl 0,1 N, + 4 °C
  Pourcentage de dégradation du DAH sur une période de 30 jours: 42%
[2]; HCl 0,1 N, + 25 °C
  Pourcentage de dégradation du DAH sur une période de 30 jours: 78%
[2]; HCl 0,1 N, + 50 °C
  Pourcentage de dégradation du DAH sur une période de 30 jours: 100%
[2]; H₂O, + 4 °C
  Pourcentage de dégradation du DAH sur une période de 30 jours: 0%
[2]; H₂O, + 25 °C
  Pourcentage de dégradation du DAH sur une période de 30 jours: 0%
[2]; H₂O, + 50 °C
  Pourcentage de dégradation du DAH sur une période de 30 jours: 0%
[2]; NaOH 0,1 N, + 4 °C
  Pourcentage de dégradation du DAH sur une période de 30 jours: 4%
[2]; NaOH 0,1 N, + 25 °C
  Pourcentage de dégradation du DAH sur une période de 30 jours: 36%
[2]; NaOH 0,1 N, + 50 °C
  Pourcentage de dégradation du DAH sur une période de 30 jours: 100%
[2]; in water, up to 50°C, one month
  Stabilité du DAH: stable
FLV; DAH 0,2 mM
  activité transcriptase inverse abaissée: ~70%
FLV; DAH 0,5 mM
  activité transcriptase inverse abaissée: 80%
FLV; DAH 1 mM
  activité transcriptase inverse abaissée: 90%
[3]
  effet sur l'activité RT: aucun effet
[4]
  DL 10 (10 % de mortalité): 8,5-9 g/kg and 8,5 g/kg
  DL 50: 11 to 12 g/kg
  DL 90: 14 to 15 g/kg
HIV
  multiplication virale du HIV (activité transcriptase inverse): inhibe de manière totale
leucémie P388; 1,5 g/kg x4/j, days 1,2,3
  T/Cx100: 155%
  Nombre d'animaux survivants: 0/5
leucémie P388; 1,5 g/kg x 4/j, days 1,2,3,4,5
  T/Cx100: 190%
  Nombre d'animaux survivants: 0/5
